Laboratory results as given in patent US20100316743A1, “INHIBITION OF THE FORMATION OF AGEs” (BASF BEAUTY CARE SOLUTIONS FRANCE S.A.S., priority 2007, published 2010).

Target: bovine serum albumin (BSA) (Bos taurus, UniProt P02769)
Assay: Inhibition of the formation of AGEs in a BSA/reducing sugar solution, measured by fluorescence
Assay type: biochemical
Details: Example 4, comparison with anthocyanins of the prior art; fluorescence versus positive control 1.5 mM aminoguanidine; quenching taken into account
Experimental: The preparation of a solution containing a protein and a reducing sugar was carried out extemporaneously as follows: a solution of bovine serum albumin (BSA) at a concentration between 1.5 μM and 1.5M, preferably between 15 μM and 500 μM, was incubated with a solution of a reducing sugar such as glucose, fructose, ribose, etc., preferably with glucose, at a concentration between 0.1M and 10M, preferably between 0.5M and 5M. […]
The protein/reducing sugar solution prepared in 1 was incubated with or without (negative control) the presence of an extract obtained in 2, at a temperature between 40 and 60° C., preferably at around 50° C. for 1 to 5 weeks, preferably for 3 weeks. The active substances obtained by extraction according to the protocol described in paragraph 2—extracts were tested at a concentration between 0.001 and 10%, preferably between 0.01 and 5% and more particularly at 1% by weight in the protein/reducing sugar preparation. The positive control used was aminoguanidine at a concentration between 15 μM and 150 mM, preferably at a concentration between 1.5 mM and 15 mM in water. The measure of the inhibition of the AGEs was carried out by measuring the fluorescence (excitation wavelength between 350 and 375 nm, preferably at 355 nm; emission wavelength between 420 and 450 nm, preferably at 430 nm). The inhibition was calculated by deducing the resulting value of the interaction of the plant extracts with the molecules of the reaction medium (quenching).
The preparation of a protein/reducing sugar solution was carried out according to the method described in Example 1 (paragraph 1). The molecules were tested at a concentration between 1×10^−7 and 1×10^−1%, and preferably between 1×10^−5 and 1×10^−1%, and in particular at 1×10^−1%, for example in water or in DMSO.

Sequence of bovine serum albumin (BSA) (P02769 25-607): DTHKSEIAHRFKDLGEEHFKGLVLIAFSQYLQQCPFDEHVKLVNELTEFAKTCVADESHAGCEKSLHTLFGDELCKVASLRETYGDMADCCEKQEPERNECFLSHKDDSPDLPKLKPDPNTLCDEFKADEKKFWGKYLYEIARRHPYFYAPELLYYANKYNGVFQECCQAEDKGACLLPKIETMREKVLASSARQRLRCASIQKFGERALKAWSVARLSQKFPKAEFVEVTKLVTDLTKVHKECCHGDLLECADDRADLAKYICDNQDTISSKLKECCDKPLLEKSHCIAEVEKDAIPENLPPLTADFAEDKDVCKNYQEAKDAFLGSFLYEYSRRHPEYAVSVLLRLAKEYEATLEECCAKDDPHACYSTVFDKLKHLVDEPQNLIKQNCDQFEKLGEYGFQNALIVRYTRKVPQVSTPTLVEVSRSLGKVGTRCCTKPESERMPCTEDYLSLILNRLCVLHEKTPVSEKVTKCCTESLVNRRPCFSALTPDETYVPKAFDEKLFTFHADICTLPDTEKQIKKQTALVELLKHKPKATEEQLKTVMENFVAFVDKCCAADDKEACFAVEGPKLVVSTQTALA

Row | % inhibition [%] | SMILES
1 | 0 | OC[C@H]1O[C@@H](Oc2cc3c(O)cc(O)cc3[o+]c2-c2ccc(O)c(O)c2)[C@H](O)[C@@H](O)[C@H]1O.[Cl-] [Idaein chloride, reference compound]
2 | 0 | OC[C@H]1O[C@@H](Oc2cc3c(O)cc(O)cc3[o+]c2-c2ccc(O)c(O)c2)[C@H](O)[C@@H](O)[C@@H]1O.[Cl-] [Kuromanin Chloride, reference compound]
3 | 0 | COc1cc(-c2[o+]c3cc(O)cc(O[C@@H]4O[C@H](CO)[C@@H](O)[C@H](O)[C@H]4O)c3cc2O[C@@H]2O[C@H](CO)[C@@H](O)[C@H](O)[C@H]2O)cc(OC)c1O.[Cl-] [Malvin Chloride, reference compound]
4 | 0 | OC[C@H]1O[C@@H](Oc2cc3c(O[C@@H]4O[C@H](CO)[C@@H](O)[C@H](O)[C@H]4O)cc(O)cc3[o+]c2-c2ccc(O)cc2)[C@H](O)[C@@H](O)[C@@H]1O.[Cl-] [Perlargonin chloride, reference compound]

Same assay, conditions: characterized molecules, in particular at 1×10^−1% in water or DMSO; BSA/reducing sugar; fluorescence versus positive control 1.5 mM aminoguanidine

Row | % inhibition [%] | SMILES
5 | 89.6 | O=C1C=CC(=O)c2cc3ccccc3cc21 [1,4-Anthraquinone]
6 | 66.0 | Nc1c(CO)ccc2c1C(=O)c1ccccc1C2=O [1-Amino-2-hydroxymethylanthraquinone]
7 | 81.4 | O=C(/C=C/c1ccc(O)cc1)c1ccccc1 [4-Hydroxychalcone]
8 | 88.3 | Oc1ccccc1O [Catechol]
9 | 67.9 | O=C1C[C@@H](c2ccc(O)cc2)Oc2cc(O[C@@H]3O[C@H](CO)[C@@H](O)[C@H](O)[C@H]3O)cc(O)c21 [Prunin]

Row | SMILES | % inhibition [%]
10 | Nc1ccc(O)cc1 [4-Aminophenol] | 78.5
11 | O=C([O-])c1ccccc1-c1c2cc(I)c(=O)c(I)c-2oc2c(I)c([O-])c(I)cc12.[Na+].[Na+] [Sodium erythrosine] | 95.6

Test system: not given
Assay: not given
Details: kidneys; cited from earlier work

Row | SMILES | reduction of the excretion of albumin in diabetics [%]
12 | N=C(N)NN [Aminoguanidine] | 90
